From the NIST ThermoML archive (doi:10.1016/j.jct.2013.02.001)
Several values for one entry are separate records, joined by “and”; a condition that tells them apart may be missing. Equal values may be shown once.

Assay: molar heat capacity at constant pressure
Settings: 101.33 kPa, Quantum Design PPMS relaxation calorimeter

O=P([O-])([O-])OP(=O)([O-])[O-].[Fe+2].[Fe+2] [iron(II) pyrophosphate]
molar heat capacity at constant pressure
Settings | Crystal 1 | Crystal 2
1 K | – | 0.08666 J/K/mol
1.913 K | – | 0.1778 J/K/mol
2 K | – | 0.1915 J/K/mol
2.064 K | – | 0.1986 J/K/mol
2.26 K | – | 0.2225 J/K/mol
2.531 K | – | 0.2638 J/K/mol
2.801 K | – | 0.3059 J/K/mol
3 K | – | 0.3363 J/K/mol
3.099 K | – | 0.357 J/K/mol
3.44 K | – | 0.423 J/K/mol
3.822 K | – | 0.5078 J/K/mol
4 K | – | 0.5546 J/K/mol
4.26 K | – | 0.6259 J/K/mol
4.75 K | – | 0.7875 J/K/mol
5 K | – | 0.8911 J/K/mol
5.271 K | – | 1.009 J/K/mol
5.851 K | – | 1.309 J/K/mol
6 K | – | 1.402 J/K/mol
6.516 K | – | 1.743 J/K/mol
7 K | – | 2.14 J/K/mol
7.28 K | – | 2.343 J/K/mol
8 K | – | 3.105 J/K/mol
8.038 K | – | 3.122 J/K/mol
8.944 K | – | 4.246 J/K/mol
9 K | – | 4.353 J/K/mol
9.847 K | – | 5.612 J/K/mol
10 K | – | 5.87 J/K/mol
10.08 K | – | 5.991 J/K/mol
10.35 K | – | 6.444 J/K/mol
10.86 K | – | 7.341 J/K/mol
11 K | – | 7.59 J/K/mol
11.2 K | – | 7.958 J/K/mol
11.38 K | – | 8.272 J/K/mol
11.88 K | – | 9.198 J/K/mol
12 K | – | 9.403 J/K/mol
12.4 K | – | 10.13 J/K/mol
12.41 K | – | 10.27 J/K/mol
12.91 K | – | 11.04 J/K/mol
13 K | – | 11.22 J/K/mol
13.42 K | – | 11.97 J/K/mol
13.81 K | – | 12.78 J/K/mol
13.93 K | – | 12.96 J/K/mol
14 K | – | 13.1 J/K/mol
14.15 K | – | 13.36 J/K/mol
14.44 K | – | 13.97 J/K/mol
14.67 K | – | 14.41 J/K/mol
14.95 K | – | 15.04 J/K/mol
15 K | – | 15.16 J/K/mol
15.19 K | – | 15.57 J/K/mol
15.31 K | – | 15.94 J/K/mol
15.46 K | – | 16.16 J/K/mol
15.7 K | – | 16.68 J/K/mol
15.96 K | – | 17.32 J/K/mol
16 K | – | 17.48 J/K/mol
16.21 K | – | 17.94 J/K/mol
16.46 K | – | 18.55 J/K/mol
16.73 K | – | 19.27 J/K/mol
16.97 K | – | 19.88 J/K/mol
17 K | – | 20.05 J/K/mol
17.03 K | – | 20.07 J/K/mol
17.21 K | – | 20.48 J/K/mol
17.47 K | – | 21.15 J/K/mol
17.72 K | – | 21.75 J/K/mol
17.97 K | – | 22.35 J/K/mol
18 K | – | 22.46 J/K/mol
18.22 K | – | 22.9 J/K/mol
18.45 K | – | 23.46 J/K/mol
18.7 K | – | 23.76 J/K/mol
18.86 K | – | 23.9 J/K/mol
18.96 K | 23.94 J/K/mol and 23.94 J/K/mol | 23.94 J/K/mol
19 K | 23.61 J/K/mol | –
19.22 K | 23.87 J/K/mol | –
19.47 K | 23.67 J/K/mol | –
19.72 K | 23.25 J/K/mol | –
19.96 K | 22.81 J/K/mol | –
20 K | 22.76 J/K/mol | –
20.21 K | 22.3 J/K/mol | –
20.45 K | 21.81 J/K/mol | –
20.7 K | 21.41 J/K/mol | –
20.95 K | 21.05 J/K/mol | –
21.21 K | 20.68 J/K/mol | –
21.46 K | 20.31 J/K/mol | –
21.71 K | 20.15 J/K/mol | –
21.96 K | 20.02 J/K/mol | –
22.21 K | 19.89 J/K/mol | –
22.47 K | 19.76 J/K/mol | –
22.74 K | 19.73 J/K/mol | –
22.99 K | 19.67 J/K/mol | –
23.23 K | 19.65 J/K/mol | –
23.29 K | 19.66 J/K/mol | –
23.48 K | 19.65 J/K/mol | –
23.52 K | 19.74 J/K/mol | –
23.7 K | 19.62 J/K/mol | –
23.73 K | 19.62 J/K/mol | –
23.9 K | 19.67 J/K/mol | –
23.98 K | 19.66 J/K/mol | –
24.1 K | 19.7 J/K/mol | –
24.3 K | 19.72 J/K/mol | –
24.47 K | 19.77 J/K/mol | –
24.66 K | 19.78 J/K/mol | –
24.86 K | 19.85 J/K/mol | –
25 K | 19.89 J/K/mol and 19.88 J/K/mol | –
25.05 K | 19.91 J/K/mol | –
25.25 K | 19.94 J/K/mol | –
25.46 K | 19.99 J/K/mol | –
25.48 K | 20.02 J/K/mol | –
25.65 K | 20.06 J/K/mol | –
25.84 K | 20.15 J/K/mol | –
25.86 K | 20.19 J/K/mol | –
25.98 K | 20.18 J/K/mol | –
26.04 K | 20.21 J/K/mol | –
26.23 K | 20.27 J/K/mol | –
26.42 K | 20.35 J/K/mol | –
26.51 K | 20.4 J/K/mol | –
26.62 K | 20.45 J/K/mol | –
26.81 K | 20.52 J/K/mol | –
26.98 K | 20.63 J/K/mol | –
27 K | 20.61 J/K/mol | –
27.2 K | 20.71 J/K/mol | –
27.39 K | 20.81 J/K/mol | –
27.53 K | 20.88 J/K/mol | –
27.58 K | 20.9 J/K/mol | –
27.78 K | 20.99 J/K/mol | –
27.98 K | 20.92 J/K/mol | –
27.99 K | 20.94 J/K/mol | –
28.18 K | 20.76 J/K/mol | –
28.34 K | 20.71 J/K/mol | –
28.53 K | 20.72 J/K/mol | –
28.55 K | 20.74 J/K/mol | –
28.68 K | 20.78 J/K/mol | –
28.75 K | 20.76 J/K/mol | –
28.95 K | 20.82 J/K/mol | –
29.05 K | 20.85 J/K/mol | –
29.12 K | 20.86 J/K/mol | –
29.33 K | 20.93 J/K/mol | –
29.51 K | 21.05 J/K/mol | –
29.53 K | 20.99 J/K/mol | –
29.72 K | 21.07 J/K/mol | –
29.91 K | 21.11 J/K/mol | –
30 K | 21.15 J/K/mol | –
30.06 K | 21.18 J/K/mol | –
30.11 K | 21.2 J/K/mol | –
30.3 K | 21.27 J/K/mol | –
30.5 K | 21.35 J/K/mol | –
30.52 K | 21.34 J/K/mol | –
30.7 K | 21.43 J/K/mol | –
30.89 K | 21.5 J/K/mol | –
31.05 K | 21.58 J/K/mol | –
31.54 K | 21.77 J/K/mol | –
31.86 K | 21.93 J/K/mol | –
32.06 K | 22.02 J/K/mol | –
32.55 K | 22.21 J/K/mol | –
33.06 K | 22.48 J/K/mol | –
33.6 K | 22.75 J/K/mol | –
34.07 K | 22.98 J/K/mol | –
35 K | 23.58 J/K/mol | –
35.39 K | 23.86 J/K/mol | –
39.3 K | 26.23 J/K/mol | –
40 K | 26.79 J/K/mol | –
43.62 K | 29.29 J/K/mol | –
45 K | 30.48 J/K/mol | –
48.44 K | 33.24 J/K/mol | –
50 K | 34.53 J/K/mol | –
53.8 K | 37.9 J/K/mol | –
55 K | 38.88 J/K/mol | –
59.7 K | 43.41 J/K/mol | –
60 K | 43.45 J/K/mol | –
65 K | 48.17 J/K/mol | –
66.33 K | 49.51 J/K/mol | –
70 K | 52.96 J/K/mol | –
73.67 K | 56.22 J/K/mol | –
75 K | 57.77 J/K/mol | –
80 K | 62.51 J/K/mol | –
81.81 K | 63.97 J/K/mol | –
85 K | 67.27 J/K/mol | –
90 K | 72.12 J/K/mol | –
90.85 K | 72.47 J/K/mol | –
95 K | 76.73 J/K/mol | –
100 K | 81.13 J/K/mol | –
100.84 K | 81.1 J/K/mol | –
110 K | 89.39 J/K/mol | –
110.99 K | 89.55 J/K/mol | –
120 K | 97.12 J/K/mol | –
120.88 K | 97.62 J/K/mol | –
130 K | 104.5 J/K/mol | –
131.05 K | 105.42 J/K/mol | –
140 K | 111.61 J/K/mol | –
141.03 K | 112.91 J/K/mol | –
150 K | 118.53 J/K/mol | –
151.17 K | 119.77 J/K/mol | –
160 K | 125.27 J/K/mol | –
161.25 K | 126.73 J/K/mol | –
170 K | 131.84 J/K/mol | –
171.3 K | 133.11 J/K/mol | –
180 K | 138.23 J/K/mol | –
181.45 K | 139.41 J/K/mol | –
190 K | 144.41 J/K/mol | –
191.55 K | 145.2 J/K/mol | –
200 K | 150.38 J/K/mol | –
201.65 K | 151.21 J/K/mol | –
210 K | 156.13 J/K/mol | –
211.78 K | 157.08 J/K/mol | –
220 K | 161.63 J/K/mol | –
221.88 K | 161.91 J/K/mol | –
230 K | 166.89 J/K/mol | –
232.02 K | 167.23 J/K/mol | –
240 K | 171.91 J/K/mol | –
242.09 K | 171.91 J/K/mol | –
250 K | 176.68 J/K/mol | –
252.14 K | 177.54 J/K/mol | –
260 K | 181.21 J/K/mol | –
262.21 K | 182.5 J/K/mol | –
270 K | 185.5 J/K/mol | –
272.36 K | 187.75 J/K/mol | –
273.15 K | 186.8 J/K/mol | –
280 K | 189.56 J/K/mol | –
282.44 K | 193.26 J/K/mol | –
290 K | 193.4 J/K/mol | –
292.45 K | 194.84 J/K/mol | –
298.15 K | 196.38 J/K/mol | –
300 K | 197.04 J/K/mol | –
302.52 K | 200.88 J/K/mol | –
